Data from patent US20090209525A1, “ENABLING METHODS TO IDENTIFY ALLOSTERIC MODULATORS OF RECEPTOR ACTIVITY” (priority 2006, published 2009).
Where a chain is given by its changes, count along the chain named. Like-named read-outs stand apart in the source and are kept apart here.

Assays:
[1] = target: T1, rat M1 D105A receptor (Rattus norvegicus, UniProt P08482, D105A); test: R-SAT functional assay, D105A mutant; format: cell-based; conditions: Table 3, maximum response
T1 construct: expressed in transfected cells; host or cells: NIH-3T3
T1 sequence (P08482 1-460 D105A): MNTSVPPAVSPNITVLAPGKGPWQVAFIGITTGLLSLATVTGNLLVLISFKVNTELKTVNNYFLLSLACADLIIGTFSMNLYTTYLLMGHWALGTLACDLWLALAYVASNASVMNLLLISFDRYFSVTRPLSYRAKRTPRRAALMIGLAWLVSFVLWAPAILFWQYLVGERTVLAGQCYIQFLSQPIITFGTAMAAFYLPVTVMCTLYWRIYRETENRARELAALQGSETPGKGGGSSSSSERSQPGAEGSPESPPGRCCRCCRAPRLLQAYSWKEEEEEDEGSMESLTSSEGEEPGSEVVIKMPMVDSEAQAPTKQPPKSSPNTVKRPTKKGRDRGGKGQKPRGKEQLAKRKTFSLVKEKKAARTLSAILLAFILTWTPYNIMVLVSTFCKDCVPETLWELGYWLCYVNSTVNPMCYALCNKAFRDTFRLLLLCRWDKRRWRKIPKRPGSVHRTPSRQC
Protocol: (§1) Cells are co-transfected for 18 h with DMEM containing 0.08 micrograms/ml of an expression vector for the expression of the mutant receptor and 0.3 micrograms/ml pSI-Bgal (Promega, Madison Wis.), and 0.5% v/v Polyfect (Qiagen, Valencia Calif.), as recommended by the manufacturer. On day three, the medium is replaced with DMEM containing 1% PSG, 0.5% calf serum, 2% cyto-sf3 (Kemp Biotechnologies, Frederick, Md.), and varying concentrations of the compounds to be tested. Cells are grown in a humidified atmosphere with 5% ambient CO2 for 5 days. The media is removed from the plates, and beta-galactosidase activity is measured by the addition of o-nitrophenyl -d-galactopyranoside in phosphate-buffered saline with 5% Nonidet P-40. […] The following equation is fitted to the data using GraphPad Prism software (San Diego, Calif.):
(§2) NIH-3T3 cells were grown in 96-well tissue culture plates to 70 to 80% confluence in Dulbecco's modified essential media (DMEM) supplemented with 100 units/ml penicillin, 100 micrograms/ml streptomycin, 0.3 mg/ml L-glutamine (1% PSG, GIBCO) and 10% calf serum (Sigma-Aldrich). Cells were transfected for 18 h with DMEM containing 0.08 micrograms/ml receptor DNA and 0.3 micrograms/ml pSI-Bgal (Promega, Madison Wis.), 0.5% v/v Polyfect (Qiagen, Valencia Calif.). Medium was replaced with DMEM containing 1% PSG, 0.5% calf serum, 2% cyto-sf3 (Kemp Biotechnologies, Frederick, Md.), and varying concentrations of ligand. […] Cells were grown in a humidified atmosphere with 5% ambient CO2 for 5 days. Medium was removed from the plates, and beta-galactosidase activity was measured by the addition of o-nitrophenyl -d-galactopyranoside in phosphate-buffered saline with 5% Nonidet P-40.

[2] = target: T2, CHO cell membranes expressing the muscarinic M1 receptor (Homo sapiens, UniProt P11229); test: Equilibrium ^3H-NMS binding at 2 nM and 10 nM ^3H-NMS
T2 construct: expressed in transfected cells; host or cells: CHO
T2 sequence (P11229 1-460): T1 sequence (P08482 1-460 D105A) with V5A, A105D, S254T, S309P, K320R, G337A, V413I

[3] = target: T3, rat M1 Y381A receptor (Rattus norvegicus, UniProt P08482, Y381A); test: R-SAT functional assay, Y381A mutant; format: cell-based; conditions: M1 Y381A; for EC50: read-out: pEC50 (converted)
T3 construct: expressed in transfected cells; host or cells: NIH-3T3
T3 sequence (P08482 1-460 Y381A): T1 sequence (P08482 1-460 D105A) with A105D, Y381A
Protocol: as §1, §2
Receptor Selection and Amplification (R-SAT™) Assays: R-SAT™ functional assays were carried out as follows. NIH-3T3 cells were grown in 96-well tissue culture plates to 70 to 80% confluence in Dulbecco's modified essential media (DMEM) supplemented with 100 units/ml penicillin, 100 micrograms/ml streptomycin, 0.3 mg/ml L-glutamine (1% PSG, GIBCO) and 10% calf serum (Sigma-Aldrich). Cells were transfected for 18 h with DMEM containing 0.08 micrograms/ml receptor DNA and 0.3 micrograms/ml pSI-Bgal (Promega, Madison Wis.), 0.5% v/v Polyfect (Qiagen, Valencia Calif.). The transfected cells were frozen away. Cells were thawed and added to 96 well plates with DMEM containing 1% PSG, 0.5% calf serum, 2% cyto-sf3 (Kemp Biotechnologies, Frederick, Md.), and varying concentrations of ligand.
In an effort to further characterize monoamine modulators, we used a panel of mutant muscarininc M1 receptors to analyze the activity and potency of orthosteric modulators and various allosteric modulators at those receptors.

[4] = Table 4, maximum response relative to xanomeline
[5] = Table 10, maximum response relative to AC-42
[6] = ^3H-NMS 2 nM and 10 nM, result in words

Row | SMILES | Eff (%) [1] | displacement of ^3H-NMS [2] | % Eff [3, 4] | EC50 ([3]; Table 4) | EC50 ([3]; Table 10, NA = non-active) | % Eff [3, 5] | displacement of ^3H-NMS [2, 6]
1 | CCCCC1CCN(CCCC(=O)c2ccccc2C)CC1 [AC-42, 4-n-butyl-1-[4-(2-methylphenyl)-4-oxo-1-butyl] piperidine hydrogen chloride] | no resp. | complete displacement of ^3H-NMS was not observed | 46% | 316 nM | 3160 nM | 102% | –
2 | CCCCC1CCN(CCCN2C(=O)COc3cc(F)ccc32)CC1 [AC-260584, 4-[3-(4-Butyl-piperidin-1-yl)-propyl]-7-fluoro-4H-benzo [1,4]oxazin-3-one] | no resp. | – | 60% | 79.4 nM | 63.1 nM | 168% | completely displace
3 | Clc1ccc2c(c1)N=C(N1CCNCC1)c1ccccc1N2 [NDMC, 8-chloro-11-(1-piperazinyl)-5H-dibenzo [b,e] [1,4] diazepine] | no resp. | – | 95% | 158 nM | 158 nM | 330% | completely displace
